Measured values: patent US8343979B2, “Use of alkanoyl L-carnitine for the treatment of erectile dysfunction” (Sigma-Tau Industrie Farmaceutiche Riunite S.p.A., priority 2001, dated 2013)

How the values were obtained:
[1] = test system: erectile dysfunction, diabetics or nondiabetics patients; assay: preliminary experimental data on propionyl L-carnitine in erectile dysfunction; format: in vivo, human; details: not previously treated with sildenafil
[2] = test system: diabetics patients suffering from E.D.; assay: clinical trial of propionyl L-carnitine plus sildenafil in sildenafil non-responders (dynamic colour Doppler ultrasonography, IIEF); format: in vivo, human; details: 2 g/day propionyl L-carnitine orally daily in combination with 50 mg sildenafil orally twice a week; diabetic E.D. patients not responder to sildenafil alone; after 3 and 6 months
Experimental: In this trial, 24 diabetics patients suffering from E.D. which were not responder to the treatment with sildenafil alone were enrolled.
2 g/day (1 g tablet twice a day) of propionyl L-carnitine were orally administered daily to the patients, and 50 mg sildenafil orally, twice a week.
In this trial, 30 diabetics patients suffering from E.D. which were not responder to the treatment with sildenafil alone were enrolled.
2 g/day (1 g tablet twice a day) of propionyl L-carnitine, were orally administered daily to the patients, and 50 mg sildenafil orally, twice a week.

CCC(=O)O[C@H](CC(=O)[O-])C[N+](C)(C)C [propionyl L-carnitine]
usefulness for treating the erectile dysfunction [1]: useful for treating the erectile dysfunction | arterial flux by dynamic colour Doppler ultrasonography [2]: improvement of the arterial flux | satisfactory clinical response evaluated with IIEF, share of treated patients [2]: 60%
